# Measured values published in US11299760B2 (Amgen Inc., priority 2013, dated 2022).
# Experiments:
# Type in all cases: cell-based, Chinese hamster
# Cells producing MAb C [1] = assay: mock perfusion assay, glycan analysis
# Description: (§1) Mock perfusion assay is a small scale, plate-based assay that is designed to mimic perfusion conditions in bioreactors through daily medium exchanges. For a 10-day mock perfusion assay, passaging cultures of various production cell lines were diluted 1:5 into chemically defined base perfusion medium in a 24 deep-well plate at a final volume of 3 ml per well. Mock perfusion was initiated on day 3 when the cells were spun down at 1000 rpm for 5 minutes and 25% of each spent culture medium was exchanged with the equivalent volume of fresh perfusion media. Subsequent medium exchange percentages were 40% on days 4-8 and 50% on day 9. Exchanged supernatants were stored at 4° C. prior to analysis.
# (§2) Analysis of cell culture parameters was also started on day 3; viable cell density and viability were analyzed using the ViaCount Guava assay as previously described. Glucose was measured daily starting on day 3 and was maintained at 12 g/l. Stored supernatants were analyzed for antibody titer as described previously. Samples of supernatant fluid from days 6, 8 and 10 were also analyzed for the presence and type of glycans by HILIC analysis.
# Equivalent volumes of methanol were added daily to control cultures (columns 1 and 2 of the 24-well plate). This scheme is depicted below:
# (§3) Total high mannose values (Total HM column) and the corresponding distributions into high mannose species from Man5 through Man9 were determined for purified antibody samples collected on day 10. Each value shown in Table 4 represents an average of duplicates.
# Cells producing MAb B [2] = assay: mock perfusion assay, glycan analysis; conditions: for Man5 / Man6 / Man7 / Man8a / Man8b / Man9: day 10
# Description: as §1, §2
# (§4) The cell lines used included three production cell lines that are known to generate mAbs with low high mannose glycans (MAb A, MAb B and MAb C) and one production cell line that consistently produces product with high levels of high mannose glycans (MAb D). […] Equivalent volumes of methanol were added daily to control cultures (columns 1 and 2 of the 24-well plate). This scheme is depicted below:
# as §3
# Cells producing MAb A [3] = assay: mock perfusion assay, glycan analysis; conditions: for Man5 / Man6 / Man7 / Man8a / Man8b / Man9: day 10
# Description: as §1, §2, §4, §3
# Cells producing MAb D [4] = assay: mock perfusion assay, glycan analysis; conditions: for Man5 / Man6 / Man7 / Man8a / Man8b / Man9: day 10
# Description: as §1, §2, §4, §3
# Cells producing MAb C [5] = assay: mock perfusion assay, cell culture parameters; conditions: for CVCD / Cumulative Titer / End of Production Viability / qP: MAb C
# Description: as §1, §2, §4
# (§5) Viable cell density (VCD) and viability were measured daily starting on day 3. Spent medium samples were collected on days 3-10 and were subjected to titer analysis. Viable cell densities were used to calculate cumulative viable cell densities, which were along with cumulative titer values used to calculate specific productivities (qP). Every value shown is an average of duplicates.
# Cells producing MAb B [6] = assay: mock perfusion assay, cell culture parameters; conditions: for CVCD / Cumulative Titer / End of Production Viability / qP: MAb B
# Description: as §1, §2, §4, §5
# Cells producing MAb A [7] = assay: mock perfusion assay, cell culture parameters; conditions: for CVCD / Cumulative Titer / End of Production Viability / qP: MAb A
# Description: as §1, §2, §4, §5
# Cells producing MAb D [8] = assay: mock perfusion assay, cell culture parameters; conditions: for CVCD / Cumulative Titer / End of Production Viability / qP: MAb D
# Description: as §1, §2, §4, §5
# [9] = constant monensin 25 nM from day 3, Day 6
# [10] = constant monensin 25 nM from day 3, Day 8
# [11] = constant monensin 25 nM from day 3, Day 10
# [12] = constant monensin 25 nM, day 10
# [13] = increasing monensin (25 nM day 4, 50 nM days 5-6, 100 nM days 7-9), Day 6
# [14] = increasing monensin (25 nM day 4, 50 nM days 5-6, 100 nM days 7-9), Day 8
# [15] = increasing monensin (25 nM day 4, 50 nM days 5-6, 100 nM days 7-9), Day 10
# [16] = increasing monensin (to 100 nM), day 10
# [17] = increasing monensin (to 100 nM)
smiles,measurement,setting,value
CC[C@@]1([C@@H]2O[C@@H]([C@H]3O[C@@](O)(CO)[C@H](C)C[C@@H]3C)C[C@@H]2C)CC[C@H]([C@]2(C)CC[C@]3(C[C@H](O)[C@@H](C)[C@@H]([C@@H](C)[C@@H](OC)[C@H](C)C(=O)O)O3)O2)O1 [monensin],Total HM,Cells producing MAb C [1]; [9],49.6%
same,Total HM,Cells producing MAb C [1]; [10],31.1%
same,Total HM,Cells producing MAb C [1]; [11],30.9%
same,Man6,Cells producing MAb C [1]; [12],5.3%
same,Man7,Cells producing MAb C [1]; [12],3.6%
same,Man8a,Cells producing MAb C [1]; [12],0.7%
same,Man8b,Cells producing MAb C [1]; [12],1.4%
same,Man9,Cells producing MAb C [1]; [12],0.3%
same,Total HM,Cells producing MAb C [1]; [13],56.6%
same,Total HM,Cells producing MAb C [1]; [14],67.6%
same,Total HM,Cells producing MAb C [1]; [15],65.8%
same,Man5,Cells producing MAb C [1]; [16],31.6%
same,Man6,Cells producing MAb C [1]; [16],13.7%
same,Man7,Cells producing MAb C [1]; [16],12.3%
same,Man8a,Cells producing MAb C [1]; [16],1.0%
same,Man8b,Cells producing MAb C [1]; [16],5.9%
same,Man9,Cells producing MAb C [1]; [16],1.3%
same,Total HM,Cells producing MAb B [2]; [9],9.6%
same,Total HM,Cells producing MAb B [2]; [10],4.6%
same,Total HM,Cells producing MAb B [2]; [11],4.0%
same,Man5,Cells producing MAb B [2]; constant monensin 25 nM,2.2%
same,Man6,Cells producing MAb B [2]; constant monensin 25 nM,0.7%
same,Man7,Cells producing MAb B [2]; constant monensin 25 nM,0.5%
same,Man8a,Cells producing MAb B [2]; constant monensin 25 nM,0.3%
same,Man8b,Cells producing MAb B [2]; constant monensin 25 nM,0.3%
same,Man9,Cells producing MAb B [2]; constant monensin 25 nM,0.0%
same,Total HM,Cells producing MAb B [2]; [13],13.2%
same,Total HM,Cells producing MAb B [2]; [14],12.4%
same,Total HM,Cells producing MAb B [2]; [15],14.0%
same,Man5,Cells producing MAb B [2]; [17],7.7%
same,Man6,Cells producing MAb B [2]; [17],3.0%
same,Man7,Cells producing MAb B [2]; [17],2.0%
same,Man8a,Cells producing MAb B [2]; [17],0.3%
same,Man8b,Cells producing MAb B [2]; [17],0.9%
same,Man9,Cells producing MAb B [2]; [17],0.1%
same,Total HM,Cells producing MAb A [3]; [9],55.7%
same,Total HM,Cells producing MAb A [3]; [10],19.7%
same,Total HM,Cells producing MAb A [3]; [11],9%
same,Man5,Cells producing MAb A [3]; constant monensin 25 nM,5.6%
same,Man6,Cells producing MAb A [3]; constant monensin 25 nM,1.2%
same,Man7,Cells producing MAb A [3]; constant monensin 25 nM,1.0%
same,Man8a,Cells producing MAb A [3]; constant monensin 25 nM,0.4%
same,Man8b,Cells producing MAb A [3]; constant monensin 25 nM,0.6%
same,Man9,Cells producing MAb A [3]; constant monensin 25 nM,0.2%
same,Total HM,"Cells producing MAb A [3]; increasing monensin (25 nM day 4, 50 nM days 5-9), Day 6",61.9%
same,Total HM,"Cells producing MAb A [3]; increasing monensin (25 nM day 4, 50 nM days 5-9), Day 8",44.9%
same,Total HM,"Cells producing MAb A [3]; increasing monensin (25 nM day 4, 50 nM days 5-9), Day 10",23.2%
same,Man5,Cells producing MAb A [3]; increasing monensin (to 50 nM),14.2%
same,Man6,Cells producing MAb A [3]; increasing monensin (to 50 nM),3.7%
same,Man7,Cells producing MAb A [3]; increasing monensin (to 50 nM),1.9%
same,Man8a,Cells producing MAb A [3]; increasing monensin (to 50 nM),0.6%
same,Man8b,Cells producing MAb A [3]; increasing monensin (to 50 nM),1.4%
same,Man9,Cells producing MAb A [3]; increasing monensin (to 50 nM),0.4%
same,Total HM,Cells producing MAb D [4]; [9],70.6%
same,Total HM,Cells producing MAb D [4]; [10],80.1%
same,Total HM,Cells producing MAb D [4]; [11],72.6%
same,Man5,Cells producing MAb D [4]; constant monensin 25 nM,30.4%
same,Man6,Cells producing MAb D [4]; constant monensin 25 nM,14.7%
same,Man7,Cells producing MAb D [4]; constant monensin 25 nM,15.3%
same,Man8a,Cells producing MAb D [4]; constant monensin 25 nM,0.7%
same,Man8b,Cells producing MAb D [4]; constant monensin 25 nM,10.1%
same,Man9,Cells producing MAb D [4]; constant monensin 25 nM,1.4%
same,high mannose species upregulated,Cells producing MAb D [4]; increasing dose of monensin,primarily upregulated Man7 and Man8(b) high mannose glycans
same,Total HM,Cells producing MAb D [4]; [13],83.0%
same,Total HM,Cells producing MAb D [4]; [14],92.5%
same,Total HM,Cells producing MAb D [4]; [15],94.9%
same,Man5,Cells producing MAb D [4]; [17],12.8%
same,Man6,Cells producing MAb D [4]; [17],14.9%
same,Man7,Cells producing MAb D [4]; [17],27.2%
same,Man8a,Cells producing MAb D [4]; [17],0.8%
same,Man8b,Cells producing MAb D [4]; [17],34.3%
same,Man9,Cells producing MAb D [4]; [17],5.0%
same,effect on cumulative viable cell density and viability,"Cells producing MAb C [5]; MAb C cells, mock perfusion",slightly increased cumulative viable cell density and improved the viability
same,effect on titer and specific productivity,"Cells producing MAb C [5]; MAb C cells, mock perfusion",increased titer but slightly lower specific productivity
same,titer and cell culture impacts,"Cells producing MAb C [5]; MAb C cells, mock perfusion with monensin",no drop in titer or any other negative cell culture impacts
same,CVCD,Cells producing MAb C [5]; constant monensin 25 nM,215 10^6 c-day/ml
same,Cumulative Titer,Cells producing MAb C [5]; constant monensin 25 nM,7.4 g/L
same,End of Production Viability,Cells producing MAb C [5]; constant monensin 25 nM,77%
same,qP,Cells producing MAb C [5]; constant monensin 25 nM,34 pg/c/d
same,CVCD,Cells producing MAb C [5]; [17],208 10^6 c-day/ml
same,Cumulative Titer,Cells producing MAb C [5]; [17],7.1 g/L
same,End of Production Viability,Cells producing MAb C [5]; [17],77%
same,qP,Cells producing MAb C [5]; [17],34 pg/c/d
same,effect on growth or viability,"Cells producing MAb B [6]; MAb B cells, mock perfusion",no effect on the growth or viability
same,effect on titer and specific productivity,"Cells producing MAb B [6]; MAb B cells, mock perfusion",no impact on either titer or specific productivity
same,CVCD,Cells producing MAb B [6]; constant monensin 25 nM,89 10^6 c-day/ml
same,Cumulative Titer,Cells producing MAb B [6]; constant monensin 25 nM,3.5 g/L
same,End of Production Viability,Cells producing MAb B [6]; constant monensin 25 nM,85%
same,qP,Cells producing MAb B [6]; constant monensin 25 nM,40 pg/c/d
same,CVCD,Cells producing MAb B [6]; [17],88 10^6 c-day/ml
same,Cumulative Titer,Cells producing MAb B [6]; [17],3.6 g/L
same,End of Production Viability,Cells producing MAb B [6]; [17],83%
same,qP,Cells producing MAb B [6]; [17],40 pg/c/d
same,effect on cell growth,"Cells producing MAb A [7]; MAb A cells, mock perfusion",decrease in total cell mass accumulation
same,effect on titer and specific productivity,"Cells producing MAb A [7]; MAb A cells, mock perfusion",decreased titer but increased specific productivity
same,CVCD,Cells producing MAb A [7]; constant monensin 25 nM,57 10^6 c-day/ml
same,Cumulative Titer,Cells producing MAb A [7]; constant monensin 25 nM,5.9 g/L
same,End of Production Viability,Cells producing MAb A [7]; constant monensin 25 nM,78%
same,qP,Cells producing MAb A [7]; constant monensin 25 nM,103 pg/c/d
same,CVCD,Cells producing MAb A [7]; increasing monensin (to 50 nM),57 10^6 c-day/ml
same,Cumulative Titer,Cells producing MAb A [7]; increasing monensin (to 50 nM),5.8 g/L
same,End of Production Viability,Cells producing MAb A [7]; increasing monensin (to 50 nM),80%
same,qP,Cells producing MAb A [7]; increasing monensin (to 50 nM),101 pg/c/d
same,effect on cell growth,"Cells producing MAb D [8]; MAb D cells, mock perfusion","similar, though not as pronounced, negative growth impact"
same,effect on titer and specific productivity,"Cells producing MAb D [8]; MAb D cells, mock perfusion",slightly decreased the titer of MAb D cells but had no effect on specific productivity
same,CVCD,Cells producing MAb D [8]; constant monensin 25 nM,104 10^6 c-day/ml
same,Cumulative Titer,Cells producing MAb D [8]; constant monensin 25 nM,4.5 g/L
same,End of Production Viability,Cells producing MAb D [8]; constant monensin 25 nM,68%
same,qP,Cells producing MAb D [8]; constant monensin 25 nM,43 pg/c/d
same,CVCD,Cells producing MAb D [8]; [17],89 10^6 c-day/ml
same,Cumulative Titer,Cells producing MAb D [8]; [17],3.6 g/L
same,End of Production Viability,Cells producing MAb D [8]; [17],53%
same,qP,Cells producing MAb D [8]; [17],41 pg/c/d
